Test: gradient 5% acetonitrile 3 min, to 50% in 2 min, to 85% in 15 min, held 3 min, 100 µL/min
Conditions: column: Zorbax Extend-C18 2.1 x 50 mm; eluents: water / acetonitrile, 0.1% formic acid
How it was run: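 Pure standards were analyzed in mixtures of ~100 molecules using HPLC coupled to a quadrupole time-of-flight mass spectrometer, in both positive and negative ionization mode. Separation used a Zorbax Extend-C18 column (2.1 × 50 mm, 1.8 μm) at 100 μL/min, with water and acetonitrile each containing 0.1% formic acid. Dead and dwell volumes were 40 μL and 900 μL, and data were collected over 3 months. Retention time was read from computationally picked adduct peaks, each inspected manually.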
In the case of `Cn1cc(CN2CC(F)(F)C[C@H]2COc2ccncc2)c2ccccc21`, the RP-LC retention time is reported as 634 s.
Work on `O=C(CN1CCCc2nc(C3CC3)ncc2C1=O)NCc1cccs1` yielded an RP-LC retention time of 682 s.
Molecule `COc1ccccc1-c1nc2sc3c(c2c(=O)[nH]1)CCCC3` has an RP-LC retention time of 1150 s.
`CCCN1C(=O)COc2ccc(-c3noc(-c4cccc(NC(C)=O)c4C)n3)cc21` showed an RP-LC retention time of 872 s.
Work on `CN1C(=O)c2cc(C(=O)NCCc3ccccc3)nn2CC1(C)C(=O)NC1CCCCC1` (stereo not given) yielded an RP-LC retention time of 812 s.
`CC(=O)N1CCCc2cc(S(=O)(=O)CCC(=O)Nc3ccc(Br)cc3F)ccc21` gave an RP-LC retention time of 824 s.
`COc1ccc(NC(=O)C2=Cc3cc(OC)ccc3OC=C2)cc1` gave an RP-LC retention time of 976 s.
`Clc1ccc(Cc2noc(Cc3nc(-c4ccccc4)cs3)n2)cc1` gave an RP-LC retention time of 1170 s.
For `O=C(N1CC(Oc2ccc(-c3noc(-c4ccccc4)n3)cc2)C1)C1(c2ccccc2)CC1`, the RP-LC retention time was 1320 s.
For `CCOc1ccc(/C=C/C(=O)Nc2nc(-c3ccc(C)cc3)c(C)s2)cc1`, the RP-LC retention time was 726 s.
Work on `CCN1CCN(CCCNC(=O)c2cc(-c3cccnc3)nc3ccc(Br)cc23)CC1` yielded an RP-LC retention time of 581 s.
Work on `COc1ccc(CCNC(=O)CSC2CCc3ccccc3NC2=O)cc1OC` (stereo not given) yielded an RP-LC retention time of 708 s.
In the case of `Cc1ccc(-c2noc(-c3sccc3NC(=O)C3(c4ccccc4)CC3)n2)cc1`, the RP-LC retention time is reported as 828 s.
Molecule `COC(=O)c1c(NCc2c(C)noc2C)c2cccc(Cl)c2[nH]c1=O` has an RP-LC retention time of 706 s.
`CCN(CCN(C)C)c1ccc(C(=O)O)cc1NS(=O)(=O)c1cc(F)ccc1C` showed an RP-LC retention time of 634 s.
In the case of `CC(C)CCNC(=O)N1CCN(Cc2nc3cccnc3n2-c2ccc(F)cc2)CC1`, the RP-LC retention time is reported as 667 s.
For `Cc1ccccc1NC(=O)N1c2ccccc2NC2=C(C(=O)CCC2)C1c1ccco1` (stereo not given), the RP-LC retention time was 817 s.
Work on `CCC(=O)CCCCC[C@@H]1NC(=O)[C@H]2CCCCN2C(=O)[C@H]([C@H](C)CC)NC(=O)[C@H](Cc2cn(OC)c3ccccc23)NC1=O` yielded an RP-LC retention time of 965 s.
Work on `CCc1ccc(C2=C(C)C(N3CCCN(C(=O)CCC(C)C)CC3)=NS2(=O)=O)cc1` yielded an RP-LC retention time of 974 s.
`CN(C)c1cccc(-c2nn3c(-c4ccc5ccccc5n4)nnc3s2)c1` showed an RP-LC retention time of 1070 s.
`O=C(Nc1ccc2c(c1)OCO2)C1CCN(C(=O)c2cccc(F)c2)CC1` showed an RP-LC retention time of 753 s.
Molecule `CN(C)CCCNC(=O)C(=O)c1c(-c2ccccc2)cc2ccccn12` has an RP-LC retention time of 620 s.
For `Cc1ccc(OCCC2CCNC2)cc1` (stereo not given), the RP-LC retention time was 646 s.
For `COC(=O)CC1CN=C(Nc2nc(C)c3ccccc3n2)NC1=O` (stereo not given), the RP-LC retention time was 615 s.
`COc1cc(NC(=O)N2CCN(Cc3nc4ccc(C)cc4o3)CC2)cc(OC)c1OC` gave an RP-LC retention time of 669 s.
`CCn1c(C(=O)Nc2cc(C)cc(C)c2)cc2sc(Cl)cc21` showed an RP-LC retention time of 1110 s.
In the case of `CCc1nc(-c2csc(S(=O)(=O)N3CCCC(C(=O)Nc4cccc(C)c4C)C3)c2)no1` (stereo not given), the RP-LC retention time is reported as 1060 s.
Work on `CCn1c(C(=O)NCc2ccc(N(C)C)cc2)cc2c(-c3cccs3)nn(-c3ccccc3)c21` yielded an RP-LC retention time of 906 s.
Molecule `CCOc1ccc(-n2c(N3CCSC3)nc3cc(C(=O)OC)ccc3c2=O)cc1` has an RP-LC retention time of 1120 s.
With `CCC(C)C(NC(=O)c1sccc1C)C(=O)Nc1nc2ccccc2[nH]1` (stereo not given) the RP-LC retention time was 746 s.
Molecule `COc1ccc(-c2cc(N3CCC(NC(=O)c4ccccc4OC)C3)n[nH]2)cc1` (stereo not given) has an RP-LC retention time of 712 s.
Work on `NC(=O)c1ccsc1NC(=O)c1c[nH]c2ccccc12` yielded an RP-LC retention time of 673 s.
With `O=C(CCNc1c(-c2ccc(F)cc2)nc2cnccn12)NCC1CC1` the RP-LC retention time was 647 s.
`Cc1noc(COC2CCCN(C(=O)c3ccc4cc[nH]c4c3)C2)n1` (stereo not given) gave an RP-LC retention time of 570 s.
In the case of `Cc1nc(-c2csc(S(=O)(=O)N3CCC(C(=O)N4CCCCCC4)CC3)c2)no1`, the RP-LC retention time is reported as 859 s.
Molecule `CCOc1ccccc1NC(=O)N1CCC(n2cnc3c(Cl)cccc3c2=O)CC1` has an RP-LC retention time of 889 s.
`O=S(=O)(NCc1ccccc1F)c1c[nH]c2ncccc12` gave an RP-LC retention time of 708 s.
`Cc1cccc(NC(=O)N2CCCC(Cn3cnc4cccnc43)C2)c1C` (stereo not given) gave an RP-LC retention time of 672 s.
`O=c1ccc(S(=O)(=O)N2CCOCC2)cn1Cc1ccc(Cl)cc1` showed an RP-LC retention time of 814 s.
`O=C(NCc1cccs1)c1nnc(-c2ccc(S(=O)(=O)N3CCCC3)cc2)o1` showed an RP-LC retention time of 849 s.
Molecule `Cc1ccc(NC(=O)c2[nH]c3cc(C)sc3c2CN2CCOCC2)c(Cl)c1` has an RP-LC retention time of 731 s.
Molecule `CC(C)CC(=O)N1CCC(C(=O)N2CCCCCCNC(=O)CC2)CC1` has an RP-LC retention time of 640 s.
`c1ccc(-c2noc(-c3ccccc3OC3CNC3)n2)cc1` showed an RP-LC retention time of 679 s.
`OC[C@H]1O[C@@H](n2cnc3c(NC4CCCC4)ncnc32)C(O)[C@H]1O` (stereo not given in full) showed an RP-LC retention time of 630 s.
For `Cc1cccc(N2C(=O)CN(Cc3ccccc3)[C@H]3CS(=O)(=O)C[C@H]32)c1`, the RP-LC retention time was 859 s.
For `CSc1ncccc1C(=O)Nc1ccc2c(c1)CCC(=O)N2`, the RP-LC retention time was 638 s.
Work on `Cc1cc(Nc2ccc(Cl)cc2C)n2ncnc2n1` yielded an RP-LC retention time of 806 s.
In the case of `Cn1ncc2c(N3CCCC3)nc(C(=O)NCc3cccnc3)nc21`, the RP-LC retention time is reported as 562 s.
In the case of `CC(C)CNC(=O)C1CCN(c2cncnc2N2CCOCC2)CC1`, the RP-LC retention time is reported as 582 s.
Work on `O=C(NCC1CCN(C(=O)COc2ccccc2)CC1)c1ccc(Br)o1` yielded an RP-LC retention time of 722 s.
Molecule `COc1ccc(-n2c(=O)n(C)c(=O)c3cc(C(=O)Nc4ccc(C(N)=O)cc4)cnc32)cc1` has an RP-LC retention time of 668 s.
In the case of `COc1ccc2c(c1)CC(C(=O)N1CCN(C(=O)c3ccco3)CC1)CO2` (stereo not given), the RP-LC retention time is reported as 725 s.
`CCc1ccc(CNC(=O)C2CCCN(c3ncnc4c3oc3ccccc34)C2)cc1` (stereo not given) showed an RP-LC retention time of 871 s.
`COC(=O)Cn1c(C2CC(=O)N(c3ccccc3OC)C2)nc2ccccc21` (stereo not given) showed an RP-LC retention time of 674 s.
`Cc1nc(-c2cnccn2)n(CC(=O)Nc2cccc(Cl)c2)c(=O)c1C` showed an RP-LC retention time of 792 s.
`COc1ccc(-c2ccnc3nc(CC(C)C)nn23)cc1` showed an RP-LC retention time of 905 s.
For `Cn1cc(CCN2CCC(C(=O)NCc3ccc4c(c3)OCO4)CC2)c2cccnc21`, the RP-LC retention time was 584 s.
`Cc1ccc(C)c(NC(=O)Nc2ccc3nnc(C)n3c2)c1` gave an RP-LC retention time of 695 s.
Work on `CCCS(=O)(=O)N1CCC(Oc2nccnc2N2CCOCC2)C1` (stereo not given) yielded an RP-LC retention time of 761 s.
Work on `Cc1cccc(N2CCN(c3cc(C(=O)O)c4cc(NC(=O)C5CCC5)ccc4n3)CC2)c1C` yielded an RP-LC retention time of 777 s.
`COC(=O)CNC(=O)N1CCCCC1c1nc(CCOCC2CC2)no1` (stereo not given) showed an RP-LC retention time of 711 s.
`Cc1ccc(NC(=O)c2csc(-c3ccc(N4CCCC4)nc3)n2)c(C)c1` gave an RP-LC retention time of 813 s.
`Cc1sc(-c2cc(C(F)(F)F)on2)cc1S(=O)(=O)Nc1cccc(Cl)c1C` showed an RP-LC retention time of 1240 s.
In the case of `CS(=O)(=O)Nc1ccc(C2(C(=O)NCCC3=CCCCC3)CCCCC2)cc1`, the RP-LC retention time is reported as 1030 s.
`CNC(=O)C1CCN(C(=O)Nc2ccc(NC(=O)Nc3ccccc3)cc2)CC1` showed an RP-LC retention time of 636 s.
In the case of `Cc1cccc2c(=O)n(C3CCN(S(=O)(=O)c4ccc(F)cc4)CC3)cnc12`, the RP-LC retention time is reported as 949 s.
`Cc1cc(CNC(=O)NC(C)(C)C)on1` gave an RP-LC retention time of 636 s.
For `COc1ccc(CN(Cc2ccccc2)Cc2cc(=O)n3ccc(C)cc3n2)cc1`, the RP-LC retention time was 681 s.
With `CCn1cnc(S(=O)(=O)N2CCC(C(=O)Nc3ccc4c(c3)OCO4)CC2)c1` the RP-LC retention time was 688 s.
With `O=C(OCc1ccncc1)c1cn(-c2cccc(F)c2)c(=O)c2ccccc12` the RP-LC retention time was 713 s.
For `Cc1nncn1C1CN(C(=O)Nc2ccc(Cl)cc2C(F)(F)F)C1`, the RP-LC retention time was 662 s.
Work on `COc1ccc(CNC(=O)c2nsc(C(=O)NCCc3ccc(OC)c(OC)c3)c2N)cc1` yielded an RP-LC retention time of 922 s.
`CC(C)c1ccc(-c2noc(N3CCC(C(=O)NCCN4CCCC4)CC3)n2)cc1` showed an RP-LC retention time of 730 s.
`O=C(NC1CC1)[C@@H]1C[C@H](Oc2cccnc2)CN1C(=O)c1cccs1` gave an RP-LC retention time of 574 s.
For `COCc1nc2cccnc2n1C1CCN(C(=O)Nc2ccc3c(c2)OCO3)CC1`, the RP-LC retention time was 658 s.
`CCOC(=O)c1noc2ncnc(N(Cc3ccccc3)C(C)C)c12` showed an RP-LC retention time of 1080 s.
In the case of `CCN(CC)CCNC(=O)CSc1cc(=O)n(C)c2cc(Cl)ccc12`, the RP-LC retention time is reported as 622 s.
Molecule `Cn1ccc2c(cc(C(=O)NCc3cccc(Br)c3)n2C)c1=O` has an RP-LC retention time of 733 s.
`Cc1cccc(C(=O)NCc2nn(C)c3ccccc23)c1` showed an RP-LC retention time of 814 s.
With `COc1ccccc1CNc1nccc(-n2nc(C)cc2C)n1` the RP-LC retention time was 840 s.
With `COc1ccc(NC(=O)N2CCC(n3cnc4ccc(Cl)cc4c3=O)CC2)cc1` the RP-LC retention time was 802 s.
Molecule `COc1ccc(C(O)CN2CCN(c3ncccn3)CC2)cc1OC` (stereo not given) has an RP-LC retention time of 566 s.
Molecule `Cc1ccc(CC(=O)N2CCC3(CC2)NC(=O)c2cccc(Cl)c2N3)cc1` has an RP-LC retention time of 812 s.
`CCN1CCN(CC2CCN(S(=O)(=O)c3cc(F)cc(F)c3)CC2)CC1` gave an RP-LC retention time of 598 s.
With `CCC(C)n1c(=O)c2ccccc2n(Cc2nc(-c3cccc(C(F)(F)F)c3)no2)c1=O` (stereo not given) the RP-LC retention time was 1300 s.
In the case of `CCNC(=O)c1ccc(-c2csc(C3CC3)n2)cc1`, the RP-LC retention time is reported as 796 s.
In the case of `CCCSCCCNC(=O)CN1C(=O)CCn2nc(-c3cn(C)c4ccccc34)cc21`, the RP-LC retention time is reported as 832 s.
For `FC(F)(F)c1cccc(-c2noc(Cc3nnc(-c4ccccc4)o3)n2)c1`, the RP-LC retention time was 1080 s.
For `Cc1ccc(S(=O)(=O)N2CCCC2c2nc(-c3ccccc3C)no2)cc1Cl` (stereo not given), the RP-LC retention time was 1290 s.
`CCn1c(=O)c(N2CCC(NC(=O)NCc3ccc(F)cc3)CC2)nc2cccnc21` gave an RP-LC retention time of 850 s.
